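Results reflect a 48-hour exposure of cells in 96-well plates to compound at five concentrations. TGI: total growth inhibition.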 Where a SMILES comes first, the peptide text is derived from it. Bridges are numbered along the chain shown (N, C = ends). [ ]: non-standard residue; d: D form. The star is where a group is joined. ξ: configuration not given here. PhAc = O=C(Cc1ccccc1)*; ξP = O=C(O)C1CCCN1
Experiments:
Assay in all cases: NCI anticancer screen, dose series, 48 h
[1] = test system: 786-0 renal
[2] = test system: A498 renal
[3] = test system: A549 NSCLC
[4] = test system: ACHN renal
[5] = test system: BT-549 breast
[6] = test system: CAKI-1 renal
[7] = test system: CCRF-CEM leukemia
[8] = test system: COLO 205 colon
[9] = test system: DU-145 prostate
[10] = test system: EKVX NSCLC
[11] = test system: HCC-2998 colon
[12] = test system: HCT-116 colon
[13] = test system: HOP-62 NSCLC
[14] = test system: HOP-92 NSCLC
[15] = test system: HT29 colon
[16] = test system: IGROV1 ovarian
[17] = test system: K-562 leukemia
[18] = test system: KM12 colon
[19] = test system: LOX IMVI melanoma
[20] = test system: M14 melanoma
[21] = test system: MALME-3M melanoma
[22] = test system: MCF7 breast
[23] = test system: MDA-MB-231 breast
[24] = test system: MDA-MB-435
[25] = test system: MDA-N
[26] = test system: MOLT-4 leukemia
[27] = test system: NCI-H226 lung
[28] = test system: NCI-H23 lung
[29] = test system: NCI-H460 lung
[30] = test system: NCI/ADR-RES ovarian
[31] = test system: OVCAR-4 ovarian
[32] = test system: OVCAR-5 ovarian
[33] = test system: OVCAR-8 ovarian
[34] = test system: PC-3 prostate
[35] = test system: RPMI-8226 leukemia
[36] = test system: RXF 393 renal
[37] = test system: SF-268 CNS
[38] = test system: SF-295 CNS
[39] = test system: SF-539 CNS
[40] = test system: SK-MEL-2 melanoma
[41] = test system: SK-MEL-28 melanoma
[42] = test system: SK-MEL-5 melanoma
[43] = test system: SK-OV-3 ovarian
[44] = test system: SN12C renal
[45] = test system: SNB-75 CNS
[46] = test system: SW-620 colon
[47] = test system: T-47D breast
[48] = test system: TK-10 renal
[49] = test system: U251 CNS
[50] = test system: UACC-257 melanoma
[51] = test system: UACC-62 melanoma
[52] = test system: HCT-15 colon
[53] = test system: HL-60(TB) leukemia
[54] = test system: HS 578T breast
[55] = test system: OVCAR-3 ovarian
[56] = test system: SNB-19 CNS
[57] = test system: SR leukemia

Measured: TGI

O=C1C2=Cc3ccccc3OC2(O)Oc2cc(O)cc(O)c21 (centres undefined)
not listed: [52] | [53] | [54] | [55] | [56] | [57]
> 100 µM: all other assays above

O=C(Cc1ccccc1)N[C@@H]1COC(=O)C2CCCN2C(=O)[C@@H]2CCCN2C1=O (some centres undefined) (PhAc-[dS]-Pro-[ξP]; ester 1-C)
4.79 µM: [45]
not listed: [5] | [17] | [35] | [49]
> 100 µM: all other assays above

From PubChem BioAssay (NCI)
